Measurements published in US4189484A, “Antihypertensive quinazoline derivatives” (priority 1977, dated 1980).

Assays:
[1] = system: spontaneously hypertensive rats (SHR); experiment: Antihypertensive effect, oral administration to spontaneously hypertensive rats (mean blood pressure and heart rate); format: in vivo, rat; conditions: for Change in blood pressure after 3 hrs. from administration: Table 1; for Changes in blood pressure (BP) after oral administration / Changes in heart rate (HR) after oral administration: Table 2, male SHR, n=5, p.o.; for Changes in average blood pressures after administration: Table 3
Protocol: Antihypertensive effect was determined by oral administration of the test compound to spontaneously hypertensive rats (hereinafter referred to as SHR).
These SHR were anesthetized with ether and chronically embedded with a cannula for determination of blood pressure so that one end of the said cannula may be placed in abdominal aorta and the other end thereof may be projected out of dorsal neck. When rats regained their body weight before operation in more than 1 week from operation, the test compound was given. Determination was made by measuring a mean blood pressure and a heart rate under unanesthetized and unrestrained conditions with the cannula connected to an electronic recording system. The test compound was suspended in a 1% tragacanth gum solution to make up a concentration so as to be a volume of 5 ml./kg. and then orally given.

[2] = system: Adrenergic α-receptor; experiment: Adrenergic α-receptor blocking effect (inhibition of hypertensive action of i.v. adrenalin hydrochloride); format: in vivo, Wistar strain male rats; conditions: relative to prazosin
Protocol: Wistar strain male rats, weighing 250-300 g., were used in this experiment. The rat was anesthetized with pentobarbital sodium and fitted in the right femoral artery with a cannula for determination of blood pressure and in the left femoral vein with another cannula for intravenous injection, the former cannula being connected to an electronic recording system to measure a blood pressure.
Adrenergic α-receptor blocking effect was determined upon whether a hypertensive action with intravenous injection of adrenalin hydrochloride at 0.3 or 1 μg./kg. may be reserved by pretreatment with the test compound.

[3] = in vivo; format: in vivo; conditions: mouse, in vivo, po; mice
Protocol: (§1) ICR strain male mice, weighing 30-35 g., were deprived of food for 6 hours (water ad libitum) and then used in the experiment. Each group consisted of 8 animals. The test compound was suspended in a 1% tragacanth gum solution so as to be a volume of 40 ml./kg. and orally given. After administration, numbers of deceased animals, changes in body weight and other general states were observed or determined over 1 week.
(§2) Survived mice were autopsyed.

[4] = system: ICR strain male mice; experiment: in vivo; format: in vivo; conditions: for No. of deceased animal: 8 animals per group, 1 week
Protocol: as §1, §2

Q: With `COc1cc2nc(N3CCN(C(=O)C=Cc4ccccc4)CC3)nc(N)c2cc1OC` [Compound No. 1, 2-(4-Cinnamoylpiperazin-1-yl)-4-amino-6,7-dimethoxyquinazoline] as the compound, how does the “time of maximum antihypertensive effect from oral administration” value ([1]; SHR, p.o.) read?
A: 3 to 6 h

Q: And the “antihypertensive effect, dose dependence” value ([1]; SHR, p.o., 0.3-3 mg./kg., in words)?
A: correlated with a dose

Q: What about the “Change in blood pressure after 3 hrs. from administration” value ([1]; SHR, p.o., 1 mg./kg., 3 hrs.) of the same compound?
A: -18 mmHg

Q: What about the “Change in blood pressure after 3 hrs. from administration” value ([1]; SHR, p.o., 10 mg./kg., 3 hrs.) of the same compound?
A: -53 mmHg

Q: And the “Changes in blood pressure (BP) after oral administration” value (“Changes in blood pressure (BP)” for short) ([1]; 0.3 mg./kg., 1 hr.)?
A: -14±5.1 mm.Hg.

Q: What about the “Changes in heart rate (HR) after oral administration” value (“Changes in heart rate (HR)” below) ([1]; 0.3 mg./kg., 1 hr.) of the same compound?
A: -5.3±3.9 no/min.

Q: What about the “Changes in blood pressure (BP)” value ([1]; 0.3 mg./kg., 3 hrs.) of the same compound?
A: -16±3.3 mm.Hg.

Q: What about the “Changes in heart rate (HR)” value ([1]; 0.3 mg./kg., 3 hrs.) of the same compound?
A: -3.8±7.4 no/min.

Q: And the “Changes in blood pressure (BP)” value ([1]; 0.3 mg./kg., 6 hrs.)?
A: -19±1.9 mm.Hg.

Q: What about the “Changes in heart rate (HR)” value ([1]; 0.3 mg./kg., 6 hrs.) of the same compound?
A: 0.3±5.9 no/min.

Q: What about the “Changes in blood pressure (BP)” value ([1]; 0.3 mg./kg., 24 hrs.) of the same compound?
A: 4±4.3 mm.Hg.

Q: And the “Changes in heart rate (HR)” value ([1]; 0.3 mg./kg., 24 hrs.)?
A: 3.9±7.1 no/min.

Q: What about the “Changes in blood pressure (BP)” value ([1]; 1 mg./kg., 1 hr.) of the same compound?
A: -20±1.6 mm.Hg.

Q: What about the “Changes in heart rate (HR)” value ([1]; 1 mg./kg., 1 hr.) of the same compound?
A: -4.8±4.1 no/min.

Q: And the “Changes in blood pressure (BP)” value ([1]; 1 mg./kg., 3 hrs.)?
A: -26±3.3 mm.Hg.

Q: And the “Changes in heart rate (HR)” value ([1]; 1 mg./kg., 3 hrs.)?
A: -1.5±4.7 no/min.

Q: What about the “Changes in blood pressure (BP)” value ([1]; 1 mg./kg., 6 hrs.) of the same compound?
A: -27±4.1 mm.Hg.

Q: And the “Changes in heart rate (HR)” value ([1]; 1 mg./kg., 6 hrs.)?
A: -7.9±2.7 no/min.

Q: And the “Changes in blood pressure (BP)” value ([1]; 1 mg./kg., 24 hrs.)?
A: -2±1.2 mm.Hg.

Q: And the “Changes in heart rate (HR)” value ([1]; 1 mg./kg., 24 hrs.)?
A: -0.5±3.2 no/min.

Q: What about the “Changes in blood pressure (BP)” value ([1]; 3 mg./kg., 1 hr.) of the same compound?
A: -40±3.5 mm.Hg.

Q: And the “Changes in heart rate (HR)” value ([1]; 3 mg./kg., 1 hr.)?
A: 6.9±5.4 no/min.

Q: And the “Changes in blood pressure (BP)” value ([1]; 3 mg./kg., 3 hrs.)?
A: -35±4.4 mm.Hg.

Q: And the “Changes in heart rate (HR)” value ([1]; 3 mg./kg., 3 hrs.)?
A: -1.7±5.5 no/min.

Q: What about the “Changes in blood pressure (BP)” value ([1]; 3 mg./kg., 6 hrs.) of the same compound?
A: -35±3.5 mm.Hg.

Q: What about the “Changes in heart rate (HR)” value ([1]; 3 mg./kg., 6 hrs.) of the same compound?
A: 10.0±8.3 no/min.

Q: What about the “Changes in blood pressure (BP)” value ([1]; 3 mg./kg., 24 hrs.) of the same compound?
A: -4±4.3 mm.Hg.

Q: What about the “Changes in heart rate (HR)” value ([1]; 3 mg./kg., 24 hrs.) of the same compound?
A: 19.5±7.2 no/min.

Q: What about the “α-receptor blocking action as compared with the action of prazosin” value [2] of the same compound?
A: 1/10

Q: And the LD50 at 168 h [3]?
A: > 5000 mg/kg

Q: And the “Body weight gain after 7 days” value ([4]; p.o., 1,250 mg./kg.)?
A: +3.9 g.

Q: What about the “No. of deceased animal” value ([4]; p.o., 1,250 mg./kg.) of the same compound?
A: 0

Q: What about the “Body weight gain after 7 days” value ([4]; p.o., 2,500 mg./kg.) of the same compound?
A: +4.0 g.

Q: What about the “No. of deceased animal” value ([4]; p.o., 2,500 mg./kg.) of the same compound?
A: 0

Q: What about the “Body weight gain after 7 days” value ([4]; p.o., 5,000 mg./kg.) of the same compound?
A: +4.7 g.

Q: And the “No. of deceased animal” value ([4]; p.o., 5,000 mg./kg.)?
A: 0

Q: Which results are given for `COc1cc2nc(N3CCN(C(=O)C=Cc4ccco4)CC3)nc(N)c2cc1OC` [compound 28, 2-{4-[3-(Furan-2-yl)-acryloyl]-piperazin-1-yl}-4-amino-6,7-dimethoxyquinazoline]?
A: Changes in average blood pressures after administration ([1]; SHR, p.o., 1 mg./kg., 1 hr.): -51 mmHg; Changes in average blood pressures after administration ([1]; SHR, p.o., 1 mg./kg., 3 hrs.): -31 mmHg; Changes in average blood pressures after administration ([1]; SHR, p.o., 1 mg./kg., 6 hrs.): -38 mmHg; Changes in average blood pressures after administration ([1]; SHR, p.o., 1 mg./kg., 24 hrs.): -11 mmHg; Changes in average blood pressures after administration ([1]; SHR, p.o., 3 mg./kg., 1 hr.): -74 mmHg; Changes in average blood pressures after administration ([1]; SHR, p.o., 3 mg./kg., 3 hrs.): -38 mmHg; Changes in average blood pressures after administration ([1]; SHR, p.o., 3 mg./kg., 6 hrs.): -43 mmHg; Changes in average blood pressures after administration ([1]; SHR, p.o., 3 mg./kg., 24 hrs.): -15 mmHg; LD50 at 168 h [3]: > 5000 mg/kg; Body weight gain after 7 days ([4]; p.o., 1,250 mg./kg.): +2.6 g.; No. of deceased animal ([4]; p.o., 1,250 mg./kg.): 0; Body weight gain after 7 days ([4]; p.o., 2,500 mg./kg.): +3.0 g.; No. of deceased animal ([4]; p.o., 2,500 mg./kg.): 0; Body weight gain after 7 days ([4]; p.o., 5,000 mg./kg.): +0.2 g.; No. of deceased animal ([4]; p.o., 5,000 mg./kg.): 0
